Data from patent US11612652B2, “Lipids as synthetic vectors to enhance antigen processing and presentation ex-vivo in dendritic cell therapy” (PDS Biotechnology Corporation, priority 2015, dated 2023).

Key:
TC1 epithelial cells = assay: DQ-OVA uptake and processing by epithelial cell line; type: cell-based, mouse; details: identical conditions as the BMDC
Method: (§1) This uptake and processing was inhibited at 4° C. confirming that active cytoskeletal rearrangements are required for this type of uptake. […] The effect of R-DOTAP was concentration dependent with 50 uM showing the greatest effect. To determine if the R-DOTAP enhancement of protein uptake is cell dependent, a mouse epithelial cell line was incubated with DQ-OVA under identical conditions as the BMDC. […] Further, they indicate that this enhancement is selective for dendritic cells and not other, non-antigen presenting cell types.

[1] = system: mouse bone marrow derived dendritic cells (BMDCs); assay: Alexa Fluor 647-OVA uptake by BMDCs, flow cytometry; type: cell-based; details: 50 μM cationic lipid, 20 μg/ml Alexa Fluor 647-OVA, 37° C., 10-60 minutes, versus 280 mM sucrose diluent
Method: In order to determine the effect of cationic lipids on the uptake of protein antigen, mouse bone marrow derived dendritic cells (BMDCs) were pulsed with Alexa Fluor®647-OVA conjugate and quantified ovalbumin uptake by BMDCs using flow cytometry. Briefly, 2×10^6 cells/ml BMDCs were incubated at 37° C. for 10-60 minutes in serum free RPMI 1640 cell culture media containing 20 μg/ml ovalbumin (Ovalbumin Alexa Fluor® 647 conjugate; life technologies, cat #034784) and 50 μM cationic lipid (RDOTAP) or 280 mM sucrose diluent. Cells were washed after pulsing to remove non-cell associated ovalbumin and fixed with 1% formaldehyde for flow cytometer analysis. The ovalbumin uptake was quantified using BD LSR II flow cytometer.

THP-1 cells = assay: DQ-OVA uptake in human monocyte cell line, confocal microscopy and flow cytometry; type: cell-based; details: DQ-OVA 10 μg/ml, R-DOTAP 25 μg/ml, 1 h at 37° C.
Method: To determine the effect of cationic lipids on human cells, a human monocyte cell line, THP-1 was used to assess DQ-OVA uptake ex-vivo. THP-1 is representative of human blood derived monocyte cells, the same cells that are used to produce DC from patients in ex vivo DC therapy approaches. THP-1 cells were incubated with DQ-OVA (10 μg/ml) in the presence (A, B) or absence (C, D) of R-DOTAP (25 μg/ml) for 1 h at 37° C. The same cell was imaged using a laser scanning confocal microscope and quantitated by measuring green versus red fluorescence by flow cytometry. […] Another striking observation from FIGS. 6A and B, is the accumulation of processed OVA in endocytic vesicles. It is well known that proteins in endocytic vesicles are efficiently incorporated into MHC class II molecules for stimulating CD4 T cells or shuttled into the cross-presentation pathway for presentation on MHC class I to CD8 T cells. Thus, cationic lipids facilitate protein uptake in a manner which maximally optimizes presentation of antigen onto both MHC class I and class II molecules, resulting in maximal stimulation of CD8 and CD4 T cells respectively.

[2] = system: BMDC (CD11c positive cells); assay: DQ-OVA uptake and processing by BMDC, flow cytometry; type: cell-based, mouse
Method: In order to determine the effects of cationic lipids on antigen uptake and processing by dendritic cells ex-vivo, a fluorescent ovalbumin protein called DQ-OVA was used. DQ-OVA is non-fluorescent when intact, but emits both red and green fluorescence when the protein is degraded. BMDC were incubated at 37° C. or 4° C. for 1 hr with DQ-OVA alone, or DQ-OVA mixed with different concentrations of the cationic lipid DOTAP. The cells were then washed, fixed, and stained with fluorescent antibodies to CD11c, a marker for dendritic cells. Cells were then analyzed on an LSRII flow cytometer in both red and green fluorescent channels.
This represents the well-known mannose receptor mediated uptake of OVA by DC. […] Graphical representation of the fluorescent uptake of DQ-OVA into BMDC measured by flow cytometry.
as §1
In order to determine whether lipid adjuvants could mediate the same effect as R-DOTAP, BMDC were incubated with DQ-OVA in media alone or with R-DOTAP as described for FIG. 1. In addition, BMDC were incubated under identical conditions with the potent lipid adjuvant lipopolysaccharide (LPS). Mouse bone marrow DC were incubated in the presence of fluorescent DQ-OVA for one hour at either 37° C. or 4° C./azide in the presence of 25 μM DOTAP nanoparticles, 10 μg/ml LPS or media alone, and analyzed by flow cytometry. […] Monophorphoryl lipid-A (MPL) is a lower toxicity derivative of LPS that is now an FDA approved adjuvant in several vaccines.

[3] = system: HPV16-specific CD8+ T-cells; assay: IFN-gamma ELISPOT of splenocytes after vaccination with KF18 HPV peptide formulations; type: in vivo, C57 black mice; details: vaccinated Day 0 and Day 7, sacrificed Day 14
Method: C57 black mice were vaccinated with various formulations: […]
Group 1: KF18 HPV peptide ([…]) (SEQ ID NO: 4)
Group 2: KF18 HPV peptide+R-DOTAP liposomes
Group 3: KF18 HPV peptide+S-DOTAP liposomes
Group 4: KF18 peptide+MPL/Alum adjuvant
5 mice per group were injected with the various formulations. The mice were vaccinated on Day 0 and Day 7 and sacrificed on Day 14. The splenocytes were removed and ELISPOT studies performed. The splenocytes were stimulated with the peptide […] (RF9) (SEQ ID NO: 5), the HPV16 CD8+ T-cell epitope peptide recognized by the C57 mice. […] An additional example of this effect is observed with the cationic lipid DDA. […] However, it has been reported that in order to induce strong antigen-specific T-cell responses that DDA is used in combination with strong adjuvants (Brandt L. et al, ESAT-6 Subunit Vaccination against Mycobacterium tuberculosis, Infect Immun. 2000 February; 68(2): 791-795).

popliteal lymph nodes = assay: Influx of T-cells and total lymphocytes into draining lymph nodes after foot pad injection; type: in vivo, mice
Method: 12 mM R-DOTAP or sucrose as control were injected into the right and eft foot pad respectively of mice and the influx of T-cells and total lymphocytes into the draining lymph nodes were quantified by flow cytometry. In this experiment, 15 hours after vaccination the popliteal lymph nodes were removed and analysis performed. […] Five mice were used per study.

CCCCCCCC/C=C\CCCCCCCC(=O)OCC(C[N+](C)(C)C)OC(=O)CCCCCCC/C=C\CCCCCCCC (stereo not shown) [R-DOTAP, 1,2-dioleoyl-3-trimethylammonium propane]
DQ-OVA uptake and processing in TC1 epithelial cells (TC1 epithelial cells): only observed in DC and not in TC1 epithelial cells | ovalbumin (protein) uptake by BMDC, fluorescence intensity [1]: significantly increased the protein uptake by BMDC at all time points measured | DQ-OVA uptake in THP-1 cells (THP-1 cells): dramatically enhanced the uptake of DQ-OVA in THP-1 cells | DQ-OVA uptake at 4° C. ([2]; 4° C., 1 hr): Significant uptake was even seen at 4 °C | DQ-OVA uptake and processing, mean green fluorescence of CD11c positive cells ([2]; 37° C., 1 hr, versus DQ-OVA alone): doubling of fluorescence | concentration showing the greatest effect on DQ-OVA uptake ([2]; concentration dependent effect): 50 µM | enhancement of DQ-OVA uptake and processing compared with known adjuvants (red fluorescence) ([2]; one hour, 25 μM DOTAP nanoparticles, 10 μg/ml LPS or media alone): greatly enhanced | HPV-specific CD8+ T-cell response (ELISPOT, RF9 stimulation) [3]: effective in inducing strong HPV-specific CD8+ T-cell responses | infiltration of T-cells into the draining lymph node (popliteal lymph nodes; 12 mM R-DOTAP in foot pad, 15 hours after vaccination, versus sucrose): induced significant infiltration of T-cells into the lymph node | lymphocyte infiltration into the lymph nodes over time (popliteal lymph nodes; 5 hours, 16 hours, 3 days and 4 days): lymphocyte infiltration into the lymph nodes was seen to increase over the 4-day period
